According to patent publication US9409880B2, “Modulators of TLR3/dsRNA complex and uses thereof” (The Regents of the University of Colorado, a body corporate, priority 2011, dated 2016):

Key:
TLR3 = target: T1, TLR3 (Mus musculus, UniProt Q99MB1); assay: In vitro TLR3 inhibition assay: Poly IC-induced NO production in RAW 264.7 cells; format: cell-based
T1 construct: endogenous in cells; host or cells: RAW 264.7
T1 sequence (Q99MB1 26-905): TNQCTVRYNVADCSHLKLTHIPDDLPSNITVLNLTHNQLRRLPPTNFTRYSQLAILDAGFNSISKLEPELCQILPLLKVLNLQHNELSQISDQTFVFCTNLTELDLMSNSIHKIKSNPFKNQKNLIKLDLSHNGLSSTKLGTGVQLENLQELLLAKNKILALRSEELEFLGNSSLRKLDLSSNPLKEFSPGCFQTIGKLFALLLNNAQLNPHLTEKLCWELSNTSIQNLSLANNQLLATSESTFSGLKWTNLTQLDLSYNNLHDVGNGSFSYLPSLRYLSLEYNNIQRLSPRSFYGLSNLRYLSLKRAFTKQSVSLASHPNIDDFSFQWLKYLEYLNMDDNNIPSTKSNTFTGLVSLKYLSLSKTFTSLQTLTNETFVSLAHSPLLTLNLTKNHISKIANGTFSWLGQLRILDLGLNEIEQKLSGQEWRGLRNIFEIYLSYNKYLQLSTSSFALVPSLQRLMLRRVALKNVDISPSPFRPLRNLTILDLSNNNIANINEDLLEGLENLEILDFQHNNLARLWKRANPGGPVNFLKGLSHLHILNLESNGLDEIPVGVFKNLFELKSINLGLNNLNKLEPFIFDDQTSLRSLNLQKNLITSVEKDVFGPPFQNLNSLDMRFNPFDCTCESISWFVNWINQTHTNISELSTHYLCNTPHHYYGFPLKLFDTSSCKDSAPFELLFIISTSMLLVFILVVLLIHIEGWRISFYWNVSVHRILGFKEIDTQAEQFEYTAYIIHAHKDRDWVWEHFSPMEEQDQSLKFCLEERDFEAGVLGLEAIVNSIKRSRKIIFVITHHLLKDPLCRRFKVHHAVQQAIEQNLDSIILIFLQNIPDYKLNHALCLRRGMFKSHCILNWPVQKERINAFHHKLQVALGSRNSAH
From the text: The initial hits (Figure A) were first evaluated using the present inventors' previously established high-throughput cell assay of TLR3 activation. See, for example, ACS Med. Chem. Lett. 2010, 1, 194 and Bioorg. Med. Chem. Lett., 2010, 20, 5411. Poly IC (Polyriboinosinic:polyribocytidylic acid) has been reported to selectively activate TLR3 signaling, resulting in the activation of nitric oxide synthase and the production nitric oxide (NO) in RAW 264.7 macrophage cells. The NO level was monitored as an indicator of Poly IC-induced TLR3 activation to evaluate the drug's inhibitory activity.
RAW 264.7 (Mouse leukaemic monocyte macrophage cell line) cells were grown in RPMI 1640 medium, supplemented with 10% FBS, penicillin (100 U/mL) and streptomycin ([…]). RAW cells were then planted in 96-well plates at 100,000 cells per well and grown for 24 h in the media descried previously at 37° C. in a 5% CO2 humidified incubator. After 24 h, non-adherent cells and media were removed and replaced with fresh RPMI 1640 medium (only RPMI). The adherent macrophages were treated with high molecular weight polyinosine-polycytidylic acid (Poly IC) (10 μg/mL) (Invivogen), an agonist of TLR3, and then added different concentrates of potential inhibitor. Two rows were only treated with Poly IC as an control. Plates were then incubated for an additional 24 h. Following incubation 100 μL of media was removed and added to flat black 96-well microfluor plates (Thermo Scientific, MA, USA). To each well, 10 μL of 2,3-diaminonaphthalene (0.05 mg/mL in 0.62 M aqueous HCl solution) was added and incubated for 15 min in the dark. The reaction was quenched by addition of 5 μL of a 3 M aqueous NaOH solution and the plate was read on Beckman Coulter DTX880 reader (Beckman Coulter, Calif., USA) with excitation at 365 nm and emission at 450 nm. The nitrite (a stable metabolite of nitric oxide) concentration was determined from a nitrite standard curve. The inhibition rate (%) of NO release was determined using the following formula: Inhibition (%)=[Poly IC(OD450)−Compounds (OD450)]/[Poly IC(OD450)−Control (OD450)]×100. The IC50 values for both inhibition and cytotoxicity were determined graphically using software Origin v7.5.

RAW 264.7 cells = assay: WST-1 cytotoxicity assay; format: cell-based, Mouse; details: WST-1 methodology; different concentrations
Description: This assay was conducted in a 96-well plate with 5,000 cells in 100 μL media (RPMI 1640 medium, supplemented with 10% FBS, penicillin (100 U/mL) and streptomycin ([…])) per well. Eight wells were left empty for blank controls. The plates were incubated (37° C., 5% CO2) overnight to allow the cells to attach to the wells. WST-1 proliferation reagent (Roche) was added to the cells (10 μL per well) and continued to incubate for 1-2 h at 37° C. Plates were checked visually by comparing the colour of wells with media without cells (colour remained pink) with wells contained untreated cells (colour is orange). When a clear difference could be seen by naked eye, results were read by spectrophotometer at 490 nm. Cytotoxicity (%) was determined using the following formula: Cytotoxicity (%)=(1−[Compounds (OD490)−Background (OD490)]/[Control (OD490)−Background (OD490)])×100.

MCP-1 = assay: In vivo poly IC-induced serum MCP-1 in wild-type mice; details: pretreatment 30 minutes prior to 100 μg poly IC i.v., serum 4 hours after
Description: Wild-type mice were treated with a single 100 μg of poly IC i.v. injection and the serum concentration of MCP-1 was investigated 4 hours after the treatment. […] Pretreatment with compound 4a at various concentrations 30 minutes prior to poly I:C application decreased MCP-1 production by about 50%.

O=C(N[C@H](Cc1ccccc1)C(=O)O)c1sc2cc(F)ccc2c1Cl [Compound 4a, (R)-2-(3-chloro-6-fluorobenzo[b]thiophene-2-carboxamido)-3-phenylpropanoic acid]
TLR3 signaling in specificity test (TLR3; 27 μM, Poly IC): selectively inhibited TLR3 signaling
increase in potency compared to T5626448 (TLR3; 4a vs T5626448): ~45 fold
IC50 (TLR3; Poly IC-induced TLR3 activation, cell assay): 3.44 ± 0.41 µM
toxicity in RAW 264.7 cells (RAW 264.7 cells): did not show any significant toxicity
decrease of MCP-1 production (MCP-1): about 50%
